# In PubChem BioAssay (NCI):
#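 Each compound was tested at five concentrations against cells in 96-well plates for 48 hours. TGI denotes the concentration required for complete inhibition of growth.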
# Experiments:
# Assay in all cases: DTP human tumour cell line panel, 48 h
# COLO 205 colon = test system: COLO 205 colon
# A549 NSCLC = test system: A549 NSCLC
# HCT-15 colon = test system: HCT-15 colon
# MDA-MB-231 breast = test system: MDA-MB-231 breast
# A498 renal = test system: A498 renal
# MOLT-4 leukemia = test system: MOLT-4 leukemia
# BT-549 breast = test system: BT-549 breast
# MCF7 breast = test system: MCF7 breast
# SW-620 colon = test system: SW-620 colon
# HOP-62 NSCLC = test system: HOP-62 NSCLC
# RPMI-8226 leukemia = test system: RPMI-8226 leukemia
# SK-OV-3 ovarian = test system: SK-OV-3 ovarian
# HS 578T breast = test system: HS 578T breast
# SNB-75 CNS = test system: SNB-75 CNS
# SK-MEL-28 melanoma = test system: SK-MEL-28 melanoma
# MDA-MB-435 = test system: MDA-MB-435
# U251 CNS = test system: U251 CNS
# ACHN renal = test system: ACHN renal
# SR leukemia = test system: SR leukemia
# SK-MEL-2 melanoma = test system: SK-MEL-2 melanoma
# UACC-62 melanoma = test system: UACC-62 melanoma
# SF-295 CNS = test system: SF-295 CNS
# UACC-257 melanoma = test system: UACC-257 melanoma
# K-562 leukemia = test system: K-562 leukemia
# HOP-92 NSCLC = test system: HOP-92 NSCLC
# DU-145 prostate = test system: DU-145 prostate
# OVCAR-5 ovarian = test system: OVCAR-5 ovarian
# SNB-19 CNS = test system: SNB-19 CNS
# KM12 colon = test system: KM12 colon
# 786-0 renal = test system: 786-0 renal
# SF-268 CNS = test system: SF-268 CNS
# OVCAR-4 ovarian = test system: OVCAR-4 ovarian
# OVCAR-8 ovarian = test system: OVCAR-8 ovarian
# EKVX NSCLC = test system: EKVX NSCLC
# MDA-N = test system: MDA-N
# OVCAR-3 ovarian = test system: OVCAR-3 ovarian
# HL-60(TB) leukemia = test system: HL-60(TB) leukemia
# MALME-3M melanoma = test system: MALME-3M melanoma
# SF-539 CNS = test system: SF-539 CNS
# UO-31 renal = test system: UO-31 renal
# HCT-116 colon = test system: HCT-116 colon
# SK-MEL-5 melanoma = test system: SK-MEL-5 melanoma
# NCI-H460 lung = test system: NCI-H460 lung
# T-47D breast = test system: T-47D breast
# NCI-H226 lung = test system: NCI-H226 lung
# HCC-2998 colon = test system: HCC-2998 colon
# NCI/ADR-RES ovarian = test system: NCI/ADR-RES ovarian
# CCRF-CEM leukemia = test system: CCRF-CEM leukemia
# RXF 393 renal = test system: RXF 393 renal
# TK-10 renal = test system: TK-10 renal
# PC-3 prostate = test system: PC-3 prostate
# M14 melanoma = test system: M14 melanoma
# LOX IMVI melanoma = test system: LOX IMVI melanoma
# IGROV1 ovarian = test system: IGROV1 ovarian
# NCI-H522 lung = test system: NCI-H522 lung
# SN12C renal = test system: SN12C renal
# HT29 colon = test system: HT29 colon
# CAKI-1 renal = test system: CAKI-1 renal
# NCI-H23 lung = test system: NCI-H23 lung
smiles,measurement,setting,value
N#Cc1c(-c2ccccc2)c2c([nH]c1=O)-c1cc([N+](=O)[O-])ccc1CCC2,TGI,COLO 205 colon,55.3 µM
same,TGI,A549 NSCLC,> 100 µM
same,TGI,HCT-15 colon,61 µM
same,TGI,MDA-MB-231 breast,> 100 µM
same,TGI,A498 renal,41 µM
same,TGI,MOLT-4 leukemia,> 100 µM
same,TGI,BT-549 breast,42.7 µM
same,TGI,MCF7 breast,71.8 µM
same,TGI,SW-620 colon,> 100 µM
same,TGI,HOP-62 NSCLC,70.2 µM
same,TGI,RPMI-8226 leukemia,> 100 µM
same,TGI,SK-OV-3 ovarian,> 100 µM
same,TGI,HS 578T breast,> 100 µM
same,TGI,SNB-75 CNS,49.9 µM
same,TGI,SK-MEL-28 melanoma,> 100 µM
same,TGI,MDA-MB-435,> 100 µM
same,TGI,U251 CNS,> 100 µM
same,TGI,ACHN renal,83.6 µM
same,TGI,SR leukemia,> 100 µM
same,TGI,SK-MEL-2 melanoma,59.3 µM
same,TGI,UACC-62 melanoma,37.3 µM
same,TGI,SF-295 CNS,63.1 µM
same,TGI,UACC-257 melanoma,> 100 µM
same,TGI,K-562 leukemia,> 100 µM
same,TGI,HOP-92 NSCLC,58.9 µM
same,TGI,DU-145 prostate,71.2 µM
same,TGI,OVCAR-5 ovarian,> 100 µM
same,TGI,SNB-19 CNS,> 100 µM
same,TGI,KM12 colon,> 100 µM
same,TGI,786-0 renal,> 100 µM
same,TGI,SF-268 CNS,> 100 µM
same,TGI,OVCAR-4 ovarian,> 100 µM
same,TGI,OVCAR-8 ovarian,> 100 µM
same,TGI,EKVX NSCLC,88.5 µM
same,TGI,MDA-N,> 100 µM
same,TGI,OVCAR-3 ovarian,45 µM
same,TGI,HL-60(TB) leukemia,72.3 µM
same,TGI,MALME-3M melanoma,> 100 µM
same,TGI,SF-539 CNS,82.5 µM
same,TGI,UO-31 renal,> 100 µM
same,TGI,HCT-116 colon,> 100 µM
same,TGI,SK-MEL-5 melanoma,76 µM
same,TGI,NCI-H460 lung,> 100 µM
same,TGI,T-47D breast,52.2 µM
same,TGI,NCI-H226 lung,71.6 µM
same,TGI,HCC-2998 colon,48.2 µM
same,TGI,NCI/ADR-RES ovarian,71.5 µM
same,TGI,CCRF-CEM leukemia,94.3 µM
same,TGI,RXF 393 renal,42.3 µM
same,TGI,TK-10 renal,> 100 µM
same,TGI,PC-3 prostate,> 100 µM
same,TGI,M14 melanoma,93.4 µM
same,TGI,LOX IMVI melanoma,81.1 µM
same,TGI,IGROV1 ovarian,> 100 µM
same,TGI,NCI-H522 lung,97.8 µM
same,TGI,SN12C renal,> 100 µM
same,TGI,HT29 colon,> 100 µM
same,TGI,CAKI-1 renal,> 100 µM
same,TGI,NCI-H23 lung,71.1 µM
